Data taken from patent US7179614B2, “Screening methods to identify compounds that modulate type I phosphodiesterase (PDE) activity” (Mount Sinai School of Medicine, priority 2000, dated 2007).

Legend:
[1] = molecular target: T1, PDE1A2 (Bos taurus, UniProt P14100); experiment: PDE assay of recombinant PDE over-expressed in HEK-293 cells; format: biochemical; conditions: HEK-293 cell homogenate; cGMP substrate; 100 μM peptide or 1 mM CaCl2 and 4 μg/ml CaM
T1 construct: made in house; host or cells: HEK 293 cells, transient transfection, sonicated lysate
Experimental: (§1) PDE Assays and CaM Affinity on Beads. PDE assays followed established procedures (Sonnenburg et al., Methods 1998, 14:3–19). All assays were performed at 30° C. using either 1 μM cAMP or between 0.2 and 1 μM cGMP as substrate in the presence of 1 mM EGTA (basal), 1 mM CaCl2 plus 4 μg/ml CaM (Ca^2+/CaM) or 100 μM effector activation peptide (Gαt-rod) peptide.
(§2) Over-expression and Assay of Recombinant PDEs. HEK 293 cells were cultured in Eagle's MEM with 2 mM […], Earle's balanced salt solution, 1.5 g/L sodium bicarbonate, 0.1 mM non-essential amino acids, 1 mM sodium pyruvate, and 10% heat-inactivated fetal calf serum. HEK 293 cells were seeded at 0.5×10^6 per well in a 6 well dish. After 24 hours, cells were transfected with DNA constructs using Gene Porter (Gene Therapy Systems), a lipid-based transfection reagent. Cells were transfected with 6 μg DNA (PDE1A1, PDE1A2 or PDE1C3) and 30 μl transfection reagent in serum free media in a volume of 1 ml. After 5 hours, the cells were supplemented with 1 ml media containing twice serum. 24 hours later, the cells were harvested by rinsing twice with PBS, scraping the cells into 200 μl of buffer containing 20 mM Tris-Cl pH 7.5, protease inhibitors (Sigma P- 8340), 1 mM 4-(2-aminoethyl) benzenesulfonyl fluoride (AEBSF), 15 μM pepstatin A, 14 μM trans-epoxysuccinyl-L-leucylamido(4-guanidino) butane (E-64), 40 μM bestatin, 22 μM leupeptin, and 0.8 μM aprotinin. Cells were sonicated in 3 five second bursts at approximately 10 Watts, and the lysates were used as the source of enzyme in the PDE assay.

[2] = molecular target: T2, PDE1C3 (Homo sapiens, UniProt Q14123); experiment: as above; format: biochemical; conditions: HEK-293 cell homogenate; cGMP substrate; 100 μM peptide or 1 mM CaCl2 and 4 μg/ml CaM
T2 construct: made in house; host or cells: HEK 293 cells, transient transfection, sonicated lysate
Experimental: as §1, §2

[3] = molecular target: T3, PDE1A1 (Bos taurus, UniProt P14100); experiment: as above; format: biochemical; conditions: HEK-293 cell homogenate; cGMP substrate; 100 μM peptide or 1 mM CaCl2 and 4 μg/ml CaM
T3 construct: made in house; host or cells: HEK 293 cells, transient transfection, sonicated lysate
Experimental: as §1, §2

[4] = system: PDE1A present in fractions 6 and 11; experiment: PDE assay on anion exchange fractions 6 and 11 of taste tissue; format: biochemical, bovine
Experimental: (§3) Preparation of taste extract. 1–2 gm circumvallate taste papillae or fungiform papillae from fresh bovine tongues were dissected and homogenized in a buffer containing 20 mMTris-Cl pH 7.5, 1 mM EDTA, 1 mM DTT, 10% glycerol, 10 μg/ml leupeptin, 10 μg/ml aprotinin, 100 μM AEBSF and 10 μg/ml pepstatin. Homogenization was carried out using a Polytron homogenizer. The homogenate was first spun at 2500×g for 10 minutes at 4° C. and the resulting supernatant was spun at 100,000×g for 30 minutes at 4° C. The supernatant of the second spin was checked for PDE activity and fractionated by anion exchange chromatography.
(§4) Anion Exchange Chromatography. Supernatant prepared from taste papillae was loaded at 1 ml/min on a DEAE-10 anion exchange column which had been equilibrated with buffer A (20 mM Tris-HCl pH 7.5, 2 mM EDTA, 20 mM β-mercapto ethanol). The column was washed in buffer A for 15 minutes or until protein was no longer detected in the buffer. Bound protein activity was eluted at a flow rate of 2 ml/min with a linear gradient (0–100%) of buffer B (buffer A+1 M NaCl) over 45 minutes Fractions were collected at 4° C. and assayed for PDE Activity. Aliquots of each fraction were boiled in sample buffer for Western blot analysis.
as §1
Specificity of the calmodulin affinity beads was checked by doing an affinity chromatography purification in the presence of 2 mM EGTA instead of CaCl2. The beads were incubated with the appropriate fractions at 4° C. for 1 hour, then spun for 2 minutes and the supernatant and pellet kept separately. The beads were then washed in the same buffer and resuspended in the presence of protease inhibitors. PDE activity was checked on the beads and in the supernatant. CaCl2 was compensated in the PDE assays when the CaM affinity was done in presence of excess EGTA.

[5] = system: PDEs in bovine taste tissue fractions; experiment: PDE assay across anion exchange fractions of taste papillae extract; format: biochemical; conditions: 100 μM peptide or 1 mM CaCl2 and 4 μg/ml CaM; for stimulation of cGMP hydrolytic activity: 1 μM cGMP; for stimulation of cAMP hydrolysis: 1 μM cAMP
Experimental: as §3, §4, §1

[6] = system: PDE 1; conditions: Yan et al., J. Biol. Chem. 1996; cited from earlier work

T1 sequence (P14100 whole entry): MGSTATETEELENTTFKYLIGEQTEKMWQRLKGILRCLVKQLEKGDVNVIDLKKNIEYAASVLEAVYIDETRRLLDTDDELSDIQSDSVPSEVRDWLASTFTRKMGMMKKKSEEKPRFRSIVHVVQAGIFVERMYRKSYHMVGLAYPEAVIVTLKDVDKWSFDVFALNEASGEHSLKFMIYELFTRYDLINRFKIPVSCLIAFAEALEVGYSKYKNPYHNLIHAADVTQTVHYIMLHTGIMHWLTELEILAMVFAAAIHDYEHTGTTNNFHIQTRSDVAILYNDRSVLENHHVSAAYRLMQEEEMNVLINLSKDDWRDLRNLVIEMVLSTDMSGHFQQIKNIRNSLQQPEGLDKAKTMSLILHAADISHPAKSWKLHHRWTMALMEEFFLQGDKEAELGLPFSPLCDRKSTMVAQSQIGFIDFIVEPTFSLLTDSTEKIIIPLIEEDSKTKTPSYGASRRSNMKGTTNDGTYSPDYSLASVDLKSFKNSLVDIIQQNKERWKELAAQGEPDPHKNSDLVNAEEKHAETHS
T2 sequence (Q14123 whole entry): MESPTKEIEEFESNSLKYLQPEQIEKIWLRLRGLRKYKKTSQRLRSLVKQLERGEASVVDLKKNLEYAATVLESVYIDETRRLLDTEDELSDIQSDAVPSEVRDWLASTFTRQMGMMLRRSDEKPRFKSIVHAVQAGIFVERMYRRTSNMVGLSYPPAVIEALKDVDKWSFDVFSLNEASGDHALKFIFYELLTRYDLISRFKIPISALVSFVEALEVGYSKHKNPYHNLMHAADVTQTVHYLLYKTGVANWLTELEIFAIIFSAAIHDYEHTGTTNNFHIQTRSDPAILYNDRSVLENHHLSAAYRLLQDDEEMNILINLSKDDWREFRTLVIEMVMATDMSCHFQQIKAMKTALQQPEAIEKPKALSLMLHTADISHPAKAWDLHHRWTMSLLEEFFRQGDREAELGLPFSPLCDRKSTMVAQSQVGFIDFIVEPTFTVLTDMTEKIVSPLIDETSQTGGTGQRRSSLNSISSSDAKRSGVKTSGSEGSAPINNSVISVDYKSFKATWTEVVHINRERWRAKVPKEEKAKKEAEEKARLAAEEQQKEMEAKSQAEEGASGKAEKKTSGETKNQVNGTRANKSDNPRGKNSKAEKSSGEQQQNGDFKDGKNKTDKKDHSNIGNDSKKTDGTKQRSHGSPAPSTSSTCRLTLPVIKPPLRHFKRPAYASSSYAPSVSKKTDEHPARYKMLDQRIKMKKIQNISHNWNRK
T3 sequence (P14100 1-514 isoform P14100-2): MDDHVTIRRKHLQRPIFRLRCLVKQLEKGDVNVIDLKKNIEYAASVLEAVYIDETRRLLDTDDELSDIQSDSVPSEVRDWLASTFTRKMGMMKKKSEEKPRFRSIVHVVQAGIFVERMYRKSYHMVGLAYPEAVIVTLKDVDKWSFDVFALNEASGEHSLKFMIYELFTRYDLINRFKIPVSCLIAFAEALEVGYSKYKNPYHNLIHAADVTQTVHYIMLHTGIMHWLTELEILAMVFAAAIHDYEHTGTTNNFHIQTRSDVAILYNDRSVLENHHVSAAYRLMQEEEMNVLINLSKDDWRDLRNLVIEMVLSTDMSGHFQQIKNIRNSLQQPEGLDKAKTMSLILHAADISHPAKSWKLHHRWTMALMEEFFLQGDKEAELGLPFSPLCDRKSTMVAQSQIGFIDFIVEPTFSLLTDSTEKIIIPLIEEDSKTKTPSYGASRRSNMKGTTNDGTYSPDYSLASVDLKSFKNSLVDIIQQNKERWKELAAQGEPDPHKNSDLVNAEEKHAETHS

| Compound | stimulation of recombinant PDE activity [1] | stimulation of recombinant PDE activity [2] | stimulation of recombinant PDE activity [3] | stimulation of PDE activity ([4]; fractions 6 and 11, 100 μM peptide, 1 μM cGMP) | stimulation of cGMP hydrolytic activity ([5]; first peak, fractions 6–7) | stimulation of cAMP hydrolysis ([5]; first three peaks (fractions 6–7; 10–12; 13–15)) | stimulation of cAMP hydrolysis ([5]; fourth peak, fractions 19–23 (PDE4)) | stimulation of cGMP hydrolytic activity ([5]; fourth peak, fractions 21–23) | stimulation of cGMP hydrolytic activity ([5]; second peak, fractions 10–12) | stimulation of cGMP hydrolytic activity ([5]; third peak, fractions 13–15) | IC50 [6] [nM] | inhibition of peptide stimulated activity of PDE1A bound to calmodulin beads ([4]; PDE1A bound to calmodulin beads, Gαt-rod peptide stimulated) | inhibition of peptide stimulated PDE activity ([4]; fractions 6 and 11, 1 μM cGMP, 100 μM Gαt-rod peptide) | inhibition of calmodulin stimulated PDE activity ([4]; fractions 6 and 11, 1 μM cGMP, 1 mM CaCl2 and 4 μg/ml CaM) [%] |
| --- | --- | --- | --- | --- | --- | --- | --- | --- | --- | --- | --- | --- | --- | --- |
| Gαt-rod peptide: peptide corresponding to the PDE effector-interaction-region of rod transducin (residues 293–314 of transducin Gα) (EDAGNYIKVQFLELNMRRDVKE) | stimulated | stimulated | stimulated | stimulated | activated | show stimulation | neither Ca^2+/CaM nor Gαt-rod peptide dependent | not stimulated above the basal level | activated | greatest activity when stimulated |  |  |  |  |
| CN1C(=O)c2[nH]c(Cc3ccc(C(F)(F)F)cc3)nc2N2C1=N[C@@H]1CCC[C@@H]12 [SCH 51866] |  |  |  |  |  |  |  |  |  |  | 100 | also inhibited peptide stimulated activity of PDE1A bound to calmodulin beads | also inhibited peptide stimulated activity | 90 |
